Experimental data: paper PMC3034713, “Targeting Vascular NADPH Oxidase 1 Blocks Tumor Angiogenesis through a PPARα Mediated Mechanism” (PLoS ONE, 2011)

How the values were obtained:
[1] = biological target: T1, NOX2 (Homo sapiens, UniProt P04839); assay: NOX inhibition in cell free assay, membranes from NOX2 expressing PMN cells (Amplex Red ROS); assay type: biochemical; settings: cell-free, membranes from NOX2 expressing PMN cells
T1 construct: Membranes from NOX2 expressing PMN cells; endogenous in cells; host or cells: PMN cells
T1 sequence (P04839 2-570 limits assumed): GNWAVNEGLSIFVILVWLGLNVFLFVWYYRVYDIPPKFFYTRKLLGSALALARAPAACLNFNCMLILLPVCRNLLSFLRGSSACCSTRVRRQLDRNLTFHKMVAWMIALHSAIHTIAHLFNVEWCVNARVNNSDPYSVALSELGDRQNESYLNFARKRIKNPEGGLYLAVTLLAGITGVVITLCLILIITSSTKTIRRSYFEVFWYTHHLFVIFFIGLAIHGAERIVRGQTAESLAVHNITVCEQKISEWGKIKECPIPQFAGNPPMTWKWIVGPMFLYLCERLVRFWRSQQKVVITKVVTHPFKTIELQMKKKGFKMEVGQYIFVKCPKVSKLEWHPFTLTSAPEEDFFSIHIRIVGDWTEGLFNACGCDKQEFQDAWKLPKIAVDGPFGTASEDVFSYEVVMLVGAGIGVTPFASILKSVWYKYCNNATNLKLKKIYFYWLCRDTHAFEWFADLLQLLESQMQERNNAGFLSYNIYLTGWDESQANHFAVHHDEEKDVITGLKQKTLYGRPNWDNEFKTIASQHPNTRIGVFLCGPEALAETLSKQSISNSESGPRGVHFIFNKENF
T1 sequence (P13498 2-195 partner limits assumed): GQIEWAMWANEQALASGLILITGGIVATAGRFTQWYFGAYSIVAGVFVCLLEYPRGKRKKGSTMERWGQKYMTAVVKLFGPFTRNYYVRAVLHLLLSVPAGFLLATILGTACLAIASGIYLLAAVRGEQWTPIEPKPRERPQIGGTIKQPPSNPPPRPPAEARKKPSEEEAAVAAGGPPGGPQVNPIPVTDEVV
Protocol: (§1) Membranes from NOX2 expressing PMN cells or from cells overexpressing NOX1 or NOX4 were prepared as previously described. After resuspension in sonication buffer (11% sucrose, 120 mM NaCl, 1 mM EGTA in PBS, pH 7.4 for NOX4-expressing cells) or in relax buffer (10 mM Pipes, 3 mM NaCl, 3.5 mM MgCl2, 0.1 M KCl, pH 7.4), cells were broken by sonication and centrifuged (200 g, 10 min). The supernatant was loaded onto a 17/40% (w/v) discontinuous sucrose gradient and centrifuged (150,000 g for 30 min). Membrane fractions were collected and stored at −80°C. ROS production measurements of membranes expressing different NOX subunits was determined as previously described using the Amplex Red method (Invitrogen).

[2] = biological target: xanthine oxidase (Homo sapiens, UniProt P47989); assay: Xanthine oxidase inhibition, concentration-response; assay type: biochemical
xanthine oxidase, sequence (P47989 whole entry, species assumed): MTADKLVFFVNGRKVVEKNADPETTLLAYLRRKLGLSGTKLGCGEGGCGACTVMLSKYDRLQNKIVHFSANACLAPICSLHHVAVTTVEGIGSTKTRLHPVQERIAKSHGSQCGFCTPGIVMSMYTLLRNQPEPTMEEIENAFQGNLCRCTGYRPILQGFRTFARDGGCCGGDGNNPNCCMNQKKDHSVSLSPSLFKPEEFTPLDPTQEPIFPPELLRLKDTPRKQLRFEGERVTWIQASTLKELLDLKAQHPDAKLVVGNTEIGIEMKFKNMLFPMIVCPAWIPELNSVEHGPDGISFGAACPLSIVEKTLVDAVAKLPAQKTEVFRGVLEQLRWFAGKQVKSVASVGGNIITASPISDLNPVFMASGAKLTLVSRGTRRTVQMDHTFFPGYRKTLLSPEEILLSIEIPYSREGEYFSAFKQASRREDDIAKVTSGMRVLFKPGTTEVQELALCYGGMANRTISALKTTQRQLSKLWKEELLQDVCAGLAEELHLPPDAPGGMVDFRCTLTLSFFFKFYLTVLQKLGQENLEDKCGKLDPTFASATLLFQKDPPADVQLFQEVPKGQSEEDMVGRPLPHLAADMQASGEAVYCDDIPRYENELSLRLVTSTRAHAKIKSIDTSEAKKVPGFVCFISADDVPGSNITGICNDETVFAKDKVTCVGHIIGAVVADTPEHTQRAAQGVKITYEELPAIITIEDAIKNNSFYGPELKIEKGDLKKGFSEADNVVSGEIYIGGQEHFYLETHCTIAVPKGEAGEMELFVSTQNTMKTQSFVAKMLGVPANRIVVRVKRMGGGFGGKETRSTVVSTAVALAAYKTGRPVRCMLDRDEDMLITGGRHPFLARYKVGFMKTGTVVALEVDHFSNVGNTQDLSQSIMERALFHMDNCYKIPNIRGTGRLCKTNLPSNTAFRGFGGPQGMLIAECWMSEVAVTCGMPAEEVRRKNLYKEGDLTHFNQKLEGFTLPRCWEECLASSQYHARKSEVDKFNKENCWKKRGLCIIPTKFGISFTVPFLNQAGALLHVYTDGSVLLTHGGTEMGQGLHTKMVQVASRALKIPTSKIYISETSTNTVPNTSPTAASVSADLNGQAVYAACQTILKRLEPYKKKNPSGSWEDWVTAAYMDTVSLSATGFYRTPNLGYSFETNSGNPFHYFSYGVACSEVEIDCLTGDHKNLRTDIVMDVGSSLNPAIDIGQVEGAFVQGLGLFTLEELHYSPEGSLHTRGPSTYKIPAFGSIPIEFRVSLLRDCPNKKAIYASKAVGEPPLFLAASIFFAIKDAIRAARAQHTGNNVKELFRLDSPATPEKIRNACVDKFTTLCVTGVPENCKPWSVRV

[3] = biological target: T2, NOX4 (Homo sapiens, UniProt Q9NPH5); assay: NOX inhibition in cell free assay, membranes from cells overexpressing NOX4 (Amplex Red ROS); assay type: biochemical; settings: cell-free, membranes from NOX4 over-expressing cells
T2 construct: expressed in transfected cells
T2 sequence (Q9NPH5 whole entry, species assumed, one chain of several): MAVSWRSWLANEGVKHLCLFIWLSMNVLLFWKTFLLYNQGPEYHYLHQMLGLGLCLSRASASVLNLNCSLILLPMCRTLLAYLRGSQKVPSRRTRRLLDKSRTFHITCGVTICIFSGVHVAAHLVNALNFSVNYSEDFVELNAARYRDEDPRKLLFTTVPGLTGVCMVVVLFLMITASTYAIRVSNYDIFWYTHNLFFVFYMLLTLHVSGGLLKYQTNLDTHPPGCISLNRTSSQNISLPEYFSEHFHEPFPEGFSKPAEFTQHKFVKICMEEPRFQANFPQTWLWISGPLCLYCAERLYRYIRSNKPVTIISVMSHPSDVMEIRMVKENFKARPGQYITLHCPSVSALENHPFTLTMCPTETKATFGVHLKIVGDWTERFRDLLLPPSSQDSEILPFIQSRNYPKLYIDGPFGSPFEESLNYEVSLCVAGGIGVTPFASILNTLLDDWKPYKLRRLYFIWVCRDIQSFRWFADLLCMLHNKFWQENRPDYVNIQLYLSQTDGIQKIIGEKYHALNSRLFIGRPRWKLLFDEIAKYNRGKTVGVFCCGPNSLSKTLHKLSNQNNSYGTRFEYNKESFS
Protocol: as §1

[4] = biological target: T3, NOX1 (Homo sapiens, UniProt Q9Y5S8); assay: NOX inhibition in cell free assay, membranes from cells overexpressing NOX1 (Amplex Red ROS); assay type: biochemical; settings: cell-free, membranes from NOX1 over-expressing cells
T3 construct: expressed in transfected cells
T3 sequence (Q9Y5S8 1-564): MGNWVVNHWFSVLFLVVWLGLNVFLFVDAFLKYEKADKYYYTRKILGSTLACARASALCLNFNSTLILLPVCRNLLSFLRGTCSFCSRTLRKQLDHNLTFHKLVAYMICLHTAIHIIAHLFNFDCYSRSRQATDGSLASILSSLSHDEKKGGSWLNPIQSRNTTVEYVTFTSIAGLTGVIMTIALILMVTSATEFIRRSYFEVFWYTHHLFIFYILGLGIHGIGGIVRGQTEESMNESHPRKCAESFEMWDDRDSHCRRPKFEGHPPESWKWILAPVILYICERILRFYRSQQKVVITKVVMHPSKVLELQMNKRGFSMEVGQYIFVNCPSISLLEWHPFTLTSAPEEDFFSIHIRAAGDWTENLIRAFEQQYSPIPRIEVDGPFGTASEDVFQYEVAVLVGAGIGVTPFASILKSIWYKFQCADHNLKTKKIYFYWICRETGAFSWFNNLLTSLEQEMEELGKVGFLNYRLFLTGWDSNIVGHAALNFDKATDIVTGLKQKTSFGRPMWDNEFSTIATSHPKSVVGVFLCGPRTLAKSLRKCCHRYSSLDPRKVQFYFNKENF
T3 sequence (P13498 2-195 partner limits assumed): T1 sequence (P13498 2-195 partner limits assumed)
Protocol: as §1

[5] = system: MLEC; assay: Wound healing assay (endothelial cell migration); assay type: cell-based, mouse; settings: NOX1-deficient MLEC, 10 µM, compared to untreated NOX1-deficient cells
Protocol: Wound healing assay was performed as described previously. Briefly, endothelial cells were plated in Matrigel (Becton Dickinson) precoated 96 wells plates. One day after plating the cell monolayer was scratched to make a regular wound. Cells were allowed to migrate overnight. Migration area was then measured and calculated using the Metamorph program (MDS Analytical Technologies).

[6] = system: tEnd siRNA NOX1; assay: Quantitative real-time PCR of target genes in NOX1-silenced endothelial cell line; assay type: cell-based, mouse
Protocol: Total RNA from treated cells was extracted using RNeasy minikit (Qiagen). Total RNA was reverse-transcribed with the Superscript III first strand RT-PCR kit (Invitrogen). Quantitative real-time PCR was performed using SybrGreen master mix (Applied Biosystems) on Step one plus Real-time PCR machine (Applied Biosystems). Primer sequences are listed in the Materials and Methods S1.
For mouse cells, siRNAs were nucleofected using the Amaxa technology (Lonza). Gene silencing was assessed 48 hours after nucleofection by quantitative RT-PCR. For HUVEC, shRNA vectors (SABiosciences) were nucleofected using Amaxa. Gene silencing was assessed 48 hours after nucleofection by quantitative RT-PCR.

[7] = system: NOX1-silenced endothelial cell lines; assay: p65 NF-κB nuclear translocation after VEGF or bFGF stimulation (Western blot, immunofluorescence); assay type: cell-based, mouse; settings: 10 µM before stimulation with VEGF and bFGF
Protocol: After stimulation, nuclear and cytoplasmic proteins of endothelial cells were extracted according to Tauzin et al.. Briefly, cells were incubated in TKM buffer (50 mM Tris-HCl pH 7.4, 25 mM KCl, 5 mM MgCl2 and 1 mM EGTA) containing 1% Triton and protease inhibitor cocktail CLAP [10 µg/ml chymostatin, leupeptin, antipain and pepstatin A (Sigma) for 30 minutes on ice, sonicated for 2 minutes and centrifuged at 5000 g for 30 minutes. The pellet and the supernatant were separated and solubilized in sample buffer.
Cells were stimulated for the indicated time and then lysed in TNT buffer (50 mM Tris, 150 mM NaCl, 0.5% Triton X-100) complemented with protease inhibitor cocktail CLAP and phosphatase inhibitor cocktail [25 mM NaF, 20 mM b-Glycerophosphate, 5 mM HEPES, 2.5 mM EDTA, 0.5 mM Orthovanadate]. Membranes were blocked in PBS containing 0.5% BSA and hybridized with different antibodies.

[8] = system: MLEC; assay: Endothelial cell sprouting assay (tube-like structure formation, 3D culture); assay type: cell-based, mouse; settings: NOX1-deficient MLEC, 10 µM, compared to untreated NOX1-deficient cells
Protocol: Sprouting assay was performed as described previously. Briefly, endothelial cells were plated in 96 well plates at 8,000 cells per well in a 3D fibrin gel. Above the gel, 10% FCS containing DMEM was complemented with 200 KIU/ml of Aprotinin (Sigma). Length of branches was evaluated using the Metamorph program. Results are expressed in mm of skeleton length/number of cells.

[9] = tEnd siRNA NOX1 + GW 6471, compared to control cells

Row | SMILES | Ki [1] [nM] | Ki [2] [nM] | Ki [3] [nM] | Ki [4] [nM] | cell migration of NOX1-deficient MLEC [5] | PPARα up regulation in NOX1-silenced cells ([6]; NOX1-silenced cells incubated with antagonist, data not shown) | Catalase expression, fold increase or decrease [6, 9] [fold] | GPX3 expression, fold increase or decrease [6, 9] [fold] | MMP-2 expression, fold increase or decrease [6, 9] [fold] | MMP-9 expression, fold increase or decrease [6, 9] [fold] | VCAM-1 expression, fold increase or decrease [6, 9] [fold] | VE-cadherin expression, fold increase or decrease [6, 9] [fold] | VEGF expression, fold increase or decrease [6, 9] [fold] | bFGF expression, fold increase or decrease [6, 9] [fold] | uPAR expression, fold increase or decrease [6, 9] [fold] | deficient nuclear translocation of NF-kB in NOX1-silenced cells [7] | tube formation of NOX1-deficient MLEC [8]
1 | c1ccc([I+]c2ccccc2)cc1 [DPI, Diphenyliodonium, reference compound] | 70 | 50 | 70 | 70 ± 10 |  |  |  |  |  |  |  |  |  |  |  |  | 
2 | CCC(=O)NC[C@H](Cc1ccc(OCCc2nc(-c3ccccc3)oc2C)cc1)N/C(C)=C\C(=O)c1ccc(C(F)(F)F)cc1 [GW6471] |  |  |  |  | restored | no longer observed | 0.92±0.012 | 0.70±0.01 | 2.13±0.24 | 0.47±0.07 | 0.57±0.18 | 0.9±0.2 | 0.68±0.04 | 0.64±0.25 | 1.34±0.6 | no longer observed | restored
